Data set [1] has as its target Clostridium difficile DNA gyrase (Clostridioides difficile, UniProt Q18C89). Description: DNA supercoiling inhibition assay. The format is biochemical. The settings on record: supercoiling of relaxed pBR322 DNA, 60 minutes at 37° C. On the procedure:
DNA supercoiling assays (30 μL reaction) were performed in a buffer containing 15 mM Tris-HCl pH 7.5, 13% glycerol, 6 mM MgCl2, 0.1 mg/mL BSA, 70 mM KCl, 1 mM dithioerythritol, 400 ng of DNA substrate (relaxed pBR322 DNA) and different concentrations of test compounds and/or standards. The dilutions of test compounds and standards were prepared in 20% dimethylsulfoxide (DMSO) and added 3 μL/reaction. The reaction was started by adding 2 μL amounts of Clostridium difficile DNA gyrase into the reaction mixtures and reactions were allowed to proceed for 60 minutes at 37° C. A reaction was carried out by adding 3 μL of 20% DMSO instead of test compound as full reaction control, and another reaction was carried out by adding sterile water instead of the enzyme as no reaction control.
Reactions were stopped by the addition of 5 μL of 6×loading dye and were analyzed by electrophoresis through 1.0% agarose gels with 1×TAE running buffer. Gels were run at 60 V for 3 hours, stained with EtBr, and visualized by Gel Doc system (BioRad). Intensity of the supercoiled DNA bands was quantified, and the IC50 of Clostridium difficile DNA gyrase was calculated using Graph Pad Prism.

The test system of the next data set is S. aureus ATCC 29213. Description: Susceptibility of bacteria, broth microdilution MIC. The format is cell-based. The conditions noted are these: Staphylococcus aureus, ATCC29213. How it is done: The antibacterial activity of the compounds of the present invention was tested by the broth microdilution method. The assay was carried out according to the CLSI guidelines for managing the procedures of susceptibility tests: “M7-A7 Methods for Dilution Antimicrobial Susceptibility Tests for Bacteria That Grow Aerobically; Approved Standard-Seventh Edition (2006)”. Test strains were grown on appropriate agar plates overnight. A broth containing the test compound diluted serially 2-fold and diluents were dispensed at 100 μL to each well of a 96-well microplate. As a growth control, a well with a broth not containing the test compound was also prepared. Colonies grown on the plates were suspended in saline, adjusted to 0.5 McFarland (OD625=0.08 to 0.10) using a colorimeter, and then diluted 10-fold with saline. The bacterial suspension was inoculated at 4 μL into each well of the microplate using a bacterial suspension inoculation apparatus. The inoculated microplate was incubated at 35° C. overnight (about 20 hours). The growth condition was observed by the naked eye, and the minimum concentration to inhibit bacterial proliferation was defined as a minimum inhibitory concentration (MIC). The MICs of compounds disclosed herein for E. faecium, Streptococcus pneumoniae and Haemophilus influenzae are shown in Table 2, while for S. aureus in Table 3.
For orientation: In broth dilution the organism is exposed to a series of concentrations in liquid medium.

Data set [2] deals with Clostridium difficile ATCC 43255. Description: Susceptibility of Clostridium difficile, agar dilution MIC. The conditions noted are these: Clostridioides difficile, ATCC43255, anaerobic. The format is cell-based. On the procedure: The antibacterial activity of the compounds of the present invention against Clostridium difficile clinical isolates was tested by the agar dilution method. The assay was carried out according to the CLSI guidelines for managing the procedures of susceptibility tests “M11-A8, Methods for Antimicrobial Susceptibility Testing of Anaerobic Bacteria; Approved Standard-Eighth Edition. CLSI document (2012)”.
The test strains were spread on supplemented Brucella agar (SBA) plates and grown at 36° C. under anaerobic condition for 42 to 48 hours. The test compound dilutions were prepared with Brucella broth and SBA plates containing dilution of test compound were prepared. As an anaerobic growth control, plates not containing the test compound were also prepared. Colonies grown on plates were suspended with Brucella broth to adjust the turbidity to 0.5 McFarland using a densitometer. Suspension (1-2 μL) of the test strains was inoculated onto each agar surface by using a bacterial suspension inoculation apparatus. After anaerobic incubation at 36° C. for 42 to 48 hours, absence and presence of growth of each strain were examined with unaided eye. The MIC was determined at which a marked reduction occurs in the appearance of growth on the test plate as compared to that of growth on the anaerobic control plates.

Data set [3] in a line: Solubility in water (JP1 / JP2 fluids). In kind it is physicochemical. The conditions noted are these: thermodynamic from solid. On the procedure: A 10 mmol/L solution of the test compound was prepared in DMSO and dispensed 100 μL of 10 mmol/L DMSO stock solutions into labeled glass tubes in duplicate, one for Japanese Pharmacopeia First Fluid (JP1) and second for Japanese Pharmacopeia Second Fluid (JP2). After evaporation of DMSO from each tube, 500 μL of JP1 and JP2 fluid were added in each tube, respectively. These tubes were sonicated for 1 minute and placed on shaker for 30 minutes with an interval of 30 seconds at every 5 minute. Tubes were placed in dark at room temperature for 1 hour and solution was filtered through membrane filter. The filtrate was diluted 2-fold and 10-fold. The resulting test solutions was analyzed and quantified against the standards using UPLC (standard preparation—10 mmol/L solution in DMSO is serially diluted with 50% aqueous acetonitrile solution to prepare 2 solutions; 100 μmol/L standard solution and 5 μmol/L standard solutions).

Data set [4] relates to Clostridium difficile 2009155, a NAP1/027 strain. Description: Hamster CDI model. In kind it is in vivo. The conditions noted are these: 0.3 mg/kg/day by oral route, 5 days. How it is done: The in vivo efficacy of test compounds were evaluated in a hamster CDI model caused by Clostridium difficile 2009155, a NAP1/027 strain. Syrine hamsters (6-8-weeks old) were primed with a single subcutaneous injection of clindamycin (30 mg/kg) 1-5 days prior to infection. Hamsters were infected by oral gavage with 1 ml of spore suspension ([…]) prepared in PBS. The drug was administered to the hamsters 6 hours post infection by oral or subcutaneous route at an interval of 24 hours for 5 days. The death and survival of the non-treated group and the drug-administered group were recorded once daily for 35 days.

For another data set, the system named is P. acnes ATCC 6523. The experiment in a line: Susceptibility of P. acnes, agar dilution MIC. The format is cell-based. The settings on record: Cutibacterium acnes, ATCC6523, anaerobic. How it is done: (§1) The antibacterial activity of the compounds of the present invention against P. acnes clinical isolates was tested by the agar dilution method. The assay was carried out according to the CLSI guidelines document (Clinical and Laboratory Standards Institute, 2012 & 2016). The test strains were spread on supplemented Brucella agar (SBA) plates and grown for 42 to 48 hours at 36° C. under anaerobic condition. The test compound dilutions were prepared with Brucella broth and SBA plates containing dilution of test compound were prepared. As an anaerobic growth control and to check the aerobic contamination, plates not containing the test compound were also prepared. Colonies grown on plates were suspended with Brucella broth to adjust the turbidity to 0.5 McFarland using a densitometer. Suspension (1-2 μL) of the test strains was inoculated onto each agar surface by using a bacterial suspension inoculation apparatus (multipoint inoculator). After anaerobic incubation for 42 to 48 hours at 36° C., absence and presence of growth of each strain on growth control plates and test compounds plate were examined with unaided eye. The MIC was determined at which a marked reduction occurs in the appearance of growth on the test plate as compared to that of growth on the anaerobic control plates.
A general note: In agar dilution, organisms are placed on agar that contains the substance at set levels.

The subject of another data set is P. acnes ATCC 6921. Description: Susceptibility of P. acnes, agar dilution MIC. In kind it is cell-based. The settings on record: Cutibacterium acnes, ATCC6921, anaerobic. On the procedure: as §1
Another data set has as its system P. acnes IHMA 103740. Description: Susceptibility of P. acnes, agar dilution MIC. The settings on record: Cutibacterium acnes, IHMA103740, anaerobic. The format is cell-based. On the procedure: as §1
For a further data set, the system named is P. acnes IHMA 775486. Description: Susceptibility of P. acnes, agar dilution MIC. The settings on record: Cutibacterium acnes, IHMA775486, anaerobic. In kind it is cell-based. On the procedure:
as §1

Data set [5] relates to N. gonorrhoeae clinical isolates. The experiment in a line: Susceptibility of N. gonorrhoeae, agar dilution MIC. The format is cell-based. How it is done: The antibacterial activity of the compounds of the present invention against N. gonorrhoeae clinical isolates was tested by the agar dilution method [Clinical and Laboratory Standards Institute, 2016]. The test strains were spread on chocolate agar plates and grown for 20-24 h at 36° C. in 5% carbon dioxide. The test compound dilutions were prepared with broth and agar MIC plates were prepared using GC agar base supplemented with haemoglobin and 1% IsoVitaleX plates. As growth control plates not containing the test compound were also prepared. Colonies grown on plates were suspended with broth to adjust the turbidity to 0.5 McFarland using a densitometer. Suspension (1-2 μL) of the test strains was inoculated onto each agar surface by using a bacterial suspension inoculation apparatus (multipoint inoculator). After aerobic incubation for 20-24 h at 36° C. in 5% carbon dioxide, absence and presence of growth of each strain on growth control plates and test compounds plate were examined with unaided eye. The MIC was determined at which a marked reduction occurs in the appearance of growth on the test plate as compared to that of growth on the aerobic control plates.

Data set [6] is described as follows: Animal infection models (background statement). The settings on record: in vivo.
The nature of data set [7]: Solubility for oral absorption (background statement). The format is physicochemical. The settings on record: compared to compounds disclosed in this patent application.

Structures are written as SMILES. Converted amounts (≈) assume the structure as drawn. Read-outs that look alike come from different tables or passages of the source.

Sequence of Clostridium difficile DNA gyrase (Q18C90 entry or part of it): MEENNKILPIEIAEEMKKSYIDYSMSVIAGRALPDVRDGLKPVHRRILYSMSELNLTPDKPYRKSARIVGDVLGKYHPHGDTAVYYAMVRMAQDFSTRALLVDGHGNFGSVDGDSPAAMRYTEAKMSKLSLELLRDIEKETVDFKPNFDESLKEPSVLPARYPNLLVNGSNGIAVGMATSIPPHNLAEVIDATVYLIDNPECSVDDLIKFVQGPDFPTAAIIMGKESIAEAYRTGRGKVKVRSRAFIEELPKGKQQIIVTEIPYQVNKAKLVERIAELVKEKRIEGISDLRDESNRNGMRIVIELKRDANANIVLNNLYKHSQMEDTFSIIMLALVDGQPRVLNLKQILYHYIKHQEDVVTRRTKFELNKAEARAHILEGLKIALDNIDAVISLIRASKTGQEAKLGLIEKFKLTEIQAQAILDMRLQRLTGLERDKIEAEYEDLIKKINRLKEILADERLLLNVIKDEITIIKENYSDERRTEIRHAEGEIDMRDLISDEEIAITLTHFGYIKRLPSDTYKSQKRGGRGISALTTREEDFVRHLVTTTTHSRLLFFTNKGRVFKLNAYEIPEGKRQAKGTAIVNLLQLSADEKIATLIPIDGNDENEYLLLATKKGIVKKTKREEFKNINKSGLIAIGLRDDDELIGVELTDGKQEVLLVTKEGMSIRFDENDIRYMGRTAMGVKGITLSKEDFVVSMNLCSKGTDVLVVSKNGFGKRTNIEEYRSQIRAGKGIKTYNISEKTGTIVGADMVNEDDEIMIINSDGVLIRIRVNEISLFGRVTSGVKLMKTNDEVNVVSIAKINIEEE
Sequence of Clostridium difficile DNA gyrase (Q18C89 entry or part of it): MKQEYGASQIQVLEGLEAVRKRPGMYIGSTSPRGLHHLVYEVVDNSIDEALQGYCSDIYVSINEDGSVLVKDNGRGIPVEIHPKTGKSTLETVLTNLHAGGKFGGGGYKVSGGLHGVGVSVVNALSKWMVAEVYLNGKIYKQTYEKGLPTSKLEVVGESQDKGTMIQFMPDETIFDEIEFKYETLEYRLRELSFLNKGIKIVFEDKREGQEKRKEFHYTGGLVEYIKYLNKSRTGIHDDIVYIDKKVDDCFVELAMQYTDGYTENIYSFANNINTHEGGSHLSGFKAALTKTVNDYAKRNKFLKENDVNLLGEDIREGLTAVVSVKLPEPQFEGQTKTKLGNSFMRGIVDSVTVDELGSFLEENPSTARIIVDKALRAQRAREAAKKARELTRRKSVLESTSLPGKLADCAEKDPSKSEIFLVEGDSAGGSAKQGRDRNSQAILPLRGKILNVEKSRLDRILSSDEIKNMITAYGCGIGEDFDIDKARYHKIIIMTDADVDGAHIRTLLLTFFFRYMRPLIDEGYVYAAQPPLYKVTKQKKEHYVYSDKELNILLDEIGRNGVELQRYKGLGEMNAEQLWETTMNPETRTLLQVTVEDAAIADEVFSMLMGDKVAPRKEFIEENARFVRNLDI

In [1], `CCc1[nH]c(C(=O)N[C@@H]2CCN(c3nnc(C(C)(O)CO)s3)C[C@@H]2OC)nc1Cl` (stereo in doubt) [Compound No. 10, 4-Chloro-N-[(3S,4R)-1-{5-[(2R)-1,2-dihydroxypropan-2-yl]-1,3,4-thiadiazol-2-yl}-3-methoxypiperidin-4-yl]-5-ethyl-1H-imidazole-2-carboxamide] gave an IC50 of 60.7 nM. For the same compound, the MIC in the data set with S. aureus ATCC 29213 amounted to 1 µg/mL (≈ 2.25 µM); in data set [2], 0.06 µg/mL (≈ 0.135 µM); against P. acnes ATCC 6523 it was 0.125 µg/mL (≈ 0.281 µM); against P. acnes ATCC 6921, 0.125 µg/mL (≈ 0.281 µM); against P. acnes IHMA 103740, 0.125 µg/mL (≈ 0.281 µM); against P. acnes IHMA 775486, 0.125 µg/mL (≈ 0.281 µM). The same compound registered an MIC in data set [5] of 0.125 µg/mL (≈ 0.281 µM). Also, the solubility at 30 min in [3] (Japanese Pharmacopeia First Fluid (JP1), pH 1.2, simulated gastric fluid, read-out: Solubility JP1) is 887 µg/mL (≈ 1990 µM); in [3] (Japanese Pharmacopeia Second Fluid (JP2), pH 6.8, aqueous buffer, read-out: Solubility JP2), 429 µg/mL (≈ 964 µM). Moreover, the “survival on day 35” value in [4] is 100%.
In the case of `CCO[C@H]1CN(c2nncs2)CC[C@H]1NC(=O)c1nc(Cl)c(CC)[nH]1` [Compound No. 150], the “efficacy in animal infection models” value in data set [6] is “not being efficacious”. In addition, the solubility result in data set [7] was “low”.

One may read the IC50 as the concentration needed to halve the response being measured. Read a high IC50 as weaker potency in that assay. As a reminder, the MIC is the lowest concentration found to suppress growth. Low readings indicate a more susceptible organism, high ones a less susceptible organism. As usually defined, the solubility is how much of the substance goes into solution per volume.

The record behind these values is patent publication US10399968B2, “Hydroxyalkyl thiadiazole derivatives” (Daiichi Sankyo Company, Limited, priority 2015, dated 2019).
